A word on the melting point: it is the temperature, or range, at which the solid turns liquid.

`CC(C)(C)c1cc(NC(=O)Nc2cccc(Cl)c2Cl)c(-c2ccncc2)o1` [Entry 38, N-(2-(4-Pyridinyl)-5-tert-butyl-3-furyl)-N′-(2,3-dichlorophenyl)urea] returned a melting point of 195 to 198 °C.
